Results as given in patent publication US7060694B2, “High potency dihydroergotamine compositions” (Pozen Inc., priority 1999, dated 2006).

How the values were obtained:
[1] = type: in vivo, human; details: after either treatment (MT 300 sc or DHE 45 im), LLOQ 50 pg/ml
Procedure: The study described above in Example 2 utilizes an incomplete crossover design. This protocol is amended to provide a direct comparison of the tolerance and pharmacokinetics of a 2 mg/ml (2.9 mM) formulation of MT 300 (Formulation A-2) and DHE 45®. The present experiment is a randomized, open-label, two period, […], crossover study comparing subcutaneous administration of 1.2 mg of MT 300 and intramuscular administration of 1 mg of DHE 45®. Plasma dihydroergotamine and the 8-hydroxydihydroergotamine metabolite are measured with an LC/MS/MS method, with a LLOQ of 50 pg/ml for both DHE and 8-OH DHE. Serial blood samples are collected for 72 hours after the dose. Seven of 8 subjects complete this study. One subject withdraws from the study due to difficulty in obtaining the blood samples. The adverse event profile is similar to that observed in the study of Example 2.

[2] = Example 4: overall tolerance profile (adverse events) of subjects administered DHE; type: in vivo, human; details: DHE concentration increased from 1.5 mM to 2.9 mM or more, total quantity of DHE constant
Text: Adverse events occur in 20 of 33 subjects treated with MT 300 and 8 of 13 subjects treated with DHE 45®.

[3] = Animal studies of DHE absorption with caffeine; type: in vivo; details: caffeine at 10:1 weight ratio relative to DHE
[4] = DHE given subcutaneously at 1.5 mM; cited from earlier work
[5] = Solubility of DHE in aqueous formulations with caffeine

Row | Compound | plasma levels of 8-OH DHE metabolite [1] | side effects, particularly nausea [2] | drug absorption characteristics [3] | nausea in treated patients [4] | solubility of DHE in aqueous formulations [5]
1 | 8-hydroxydihydroergotamine [8-OH DHE] | No significant levels |  |  |  | 
2 | CN1C[C@H](C(=O)N[C@]2(C)O[C@@]3(O)[C@@H]4CCCN4C(=O)[C@H](Cc4ccccc4)N3C2=O)C[C@@H]2c3cccc4[nH]cc(c34)C[C@H]21 [DHE, Dihydroergotamine] |  | reduced | improves drug absorption characteristics | ~16% | greatly increases the solubility
